Data from patent US12220466B2, “Pharmaceutical formulation” (Cutting Edge Technology, LLC, priority 2016, dated 2025).

Assays:
pocket epithelium [1] = conditions: cited from earlier work
[2] = test system: spirochetes and motile rods in subgingival plaques; conditions: up to 12 weeks; cited from earlier work
pocket epithelium [3] = conditions: monkey, in vivo; cited from earlier work
[4] = test system: gram-negative anaerobes and spirochetes; conditions: cited from earlier work
periodontitis = experiment: Extensive in vivo administration of viscous tetracycline and 10% carbamide peroxide gel with mechanical debridement (Phase I-III)
Description: Each of the subjects had up to 6 or more recorded pocket sites, which can have up to 32 teeth and other parameters of periodontal disease recordings as well as health recordings in their patient records.
During Phase I treatments of periodontitis, a gel solution including 10% carbamide peroxide was applied directly to the periodontal pocket and pocket areas immediately followed by or preceded by 30-600 mg or more of pure topical tetracycline in powder or paste form, also applied directly to the pocket and pocket treatment areas together with the gel solution. The gel solution and the tetracycline were also applied to teeth directly. Tetracycline was added at intervals throughout the treatment. Treatment was performed on pockets from 3 mm up to 10 mm and more.
When pocket tissue was swollen, the 10% carbamide peroxide penetrated the deep pocket under the gum. The 10% carbamide peroxide was in the form of a viscous gel and was applied to the wound site or pocket using a periodontal probe, for example, or using a curet or scaler. For example, one or two drops from a squeeze-bottle applicator was applied to the end of end of a curette tip or scaler or was applied with a periodontal pocket measuring probe. The peroxide gel was also applied under artificial teeth and implants, for example under restorative bridges such as pontic areas, whether with implants or natural teeth. […]

Row | Compound | time to restoration of epithelial lining (pocket epithelium [1]; in vivo) | removal of pocket epithelium (histological) (pocket epithelium [1]; one minute application, neutralization, six curette strokes) | percentages of spirochetes and motile rods versus scaling and root planing alone [2] | time to nearly complete healing without irreparable damage (pocket epithelium [3]) | time to reformation of epithelial lining (pocket epithelium [3]) | time to removal of most of the necrotic layer (pocket epithelium [3]) | duration of the decrease ([4]; in vivo) | number of gram-negative anaerobes and spirochetes ([4]; patients under 18 years, no scaling and root planing) | in office patient complaints (periodontitis; in vivo) | allergic reaction with topical use (periodontitis; patient population)
1 | OCl [sodium hypochlorite] | 7 days | complete removal of pocket epithelium with normal healing | no difference at any time between therapies | 11 days | 3 days | 16 h | 30 to 90 days | significant decrease | – | –
2 | CN(C)[C@@H]1C(O)=C(C(N)=O)C(=O)[C@@]2(O)C(O)=C3C(=O)c4c(O)cccc4[C@@](C)(O)[C@H]3C[C@@H]12 [tetracycline] | – | – | – | – | – | – | – | – | to taste, not pain | No true allergic reaction
